From US11248024B2, “Noxa-derived, cell death-inducing peptide eMTD” (INDUSTRY-ACADEMIC COOPERATION FOUNDATION, CHOSUN UNIVERSITY, priority 2019, dated 2022)
Ends that are not written are not given here.

Assays:
[1] = Two-step assay, damage on lipid membrane of liposomes (TbCl3/DPA fluorescence); type: biochemical; conditions: for Relative Fluorescence Intensity: liposomes, excitation 276 nm, read at 490 nm
Experimental: In brief, DOPS, DOPE, and DOPC (Avanti Polar Lipids) were dissolved at the ratio of 2:4:3 in chloroform, followed by vaporization. The residue was again dissolved at the concentration of 2 mg/mL in TbCl3 buffer (15 mM TbCl3, 50 mM sodium citrate, 20 mM HEPES, 150 mM NaCl, pH 7.4). The lipid mixture was extruded by Mini extruder (Avanti Polar Lipids) with a 400 nm to prepare liposomes which were washed with washing buffer (150 mM NaCl, 20 mM HEPES, pH 7.4) and then resuspended in an assay buffer (50 DPA, […], 20 mM HEPES, pH 7.4). The suspension was plated into 96-well plates and treated with 0, 10, or 25 μM of eMTD (SEQ ID NO: 1) or eMTDΔ4 (SEQ ID NO: 2). After stimulation with 276 nm laser, fluorescence was read at 490 nm.

HeLa cells = assay: Mitochondrial PTP opening, calcein AM and cobalt ions; type: cell-based, human; conditions: calcein AM 1 μM and cobalt ions 2 mM
Experimental: Mitochondria are known to open permeability transition pores (PTP) to allow cytosolic calcium influx. The observation that eMTDΔ4 (SEQ ID NO: 2) migrates to mitochondria and induces cytosolic calcium influx led to investigating the association of the action of eMTDΔ4 (SEQ ID NO: 2) with PTP. To this end, PTP opening was monitored using calcein AM and cobalt ions.
In brief, HeLa cells were grown on a Lab-Tek chamber glass slide one day before the experiment. Immediately before the experiment, the cells were stained with 1 μM of calcein AM and 2 mM of cobalt ions for 20 min and then with 0.1 μM of MitoTracker Red for 2 min. When PTP is opened, mitochondrial calcein AM meets cobalt ions so that the fluorescence of calcein AM is quenched.

## KLNFRQKLLNLISKLF [eMTDΔ4]
[1]; FIGS. 10A to 10C and Table 6
  liposome lipid membrane damage (in words): higher fluorescence intensity was detected
[1]; 10 μM
  Relative Fluorescence Intensity: 25%
[1]; 25 μM
  Relative Fluorescence Intensity: 51%
HeLa cells
  mitochondrial PTP opening (calcein AM fluorescence): fluorescence of mitochondrial calcein AM was quenched
